For experiment [1], the system named is MDA-MB-231 triple negative breast cancer xenograft model. Description: MM-121 combination with targeted and chemotherapies in vivo (Example 5). The settings on record: MM121 300 ug/mouse Q3D, erlotinib 50 mg/kg PO, cetuximab 2 mg/kg Q3D, paclitaxel 10 mg/kg.
Description: Balb/c nude mice (female, 4-5 weeks old from Charles River lab) are implanted orthotopically with 10×10^6 cells in mammary pad. Tumors are allowed to reach average of 150 mm^3 in size before randomization into 9 groups of 8 mice, containing mice with a similar size distribution of tumors. […] Treatment is continued for 4 weeks. Tumors are measured twice weekly and tumor volume is calculated as p/6×length×width, where the width is the shorter measurement.
The test system is the same in experiment [2]. Nature of the experiment: Inhibition of tumor growth in vivo by combination treatment with MM-121 and paclitaxel (Example 4). Set-up: species or system Balb/c nude mice. As to conditions: for mean tumor volumes: MM121 150 μg/mouse Q3D ip, paclitaxel 5 mg/kg; for effect on tumor growth (in words): sub-optimal doses, FIG. 3. An excerpt: Treatment is continued for 4 weeks. […] Results:

Experiment [3] relates to triple negative human mammary carcinoma xenograft MAXF449. Description: Anti-tumor efficacy of MM-121 monotherapy in MAXF449 xenograft. The experiment is classed as in vivo, NMRI nude mice. As to conditions: MM-121 600 μg per mouse IP every three days. Here is the method: An analysis of the anti-tumor efficacy and tolerability of MM-121 treatment of tumor-bearing mice is carried out using triple negative human mammary carcinoma xenograft MAXF449 (ONCOTEST GmbH, Frieburg, Germany) in NMRI nude mice. MAXF449 is a Human tumor explant (histologically described upon explant as solid invasive ductal, and poorly defined) established via subcutaneous injection in serial passages in nude mice. The MAXF449 cells used in these experiments have been passaged 22 times. NMRI nude mice are obtained from Taconic farms, Charles River Laboratories International, or Harlan Laboratories. […]
To investigate anti-tumor efficacy in monotherapy, MM-121 or vehicle control (100 μL) is given to tumor-bearing mice at 600 μg per mouse (MM-121 as a 6 mg/mL solution in PBS) by IP injection every three days. […] Efficacy is determined by comparing tumor growth between the antibody-treated mice and the vehicle control mice and is expressed as the experimental to control ratio of median relative tumor volumes (T/C value). […]
Mice are randomized and therapy begins when a sufficient number of individual tumors have grown to a volume of approximately 200 mm3. Tumors are measured (L×W) by digital caliper measurement and the tumor volume is calculated using the formula Pi/6 (W2×L). […]

Experiment [4] has as its system MDA-MB-231 human triple negative breast cancer cells. Description: MM-121 effects on MDA-MB-231 xenograft (subcutaneous flank or mammary fat pad). The experiment is classed as in vivo, Balb/c nude mice. As to conditions: MM-121 600 ug per mouse IP every 3 days; FIG. 2. Here is the method:
Balb/c nude mice are injected under general anesthesia with 10^7 MDA-MB-231 human triple negative breast cancer cells (ATCC) either subcutaneously in the flank or into the mammary fat pad. Mice with established tumors (i.e., after 7-10 days of tumor growth following injection of cells) are then treated IP with either PBS or MM-121 every 3 days with 600 ug MM-121 per mouse as described in Example 1. Tumor volume is measured twice a week as described in Example 1.

The mark [5] stands for this setting: 1st time point column (day head not given; FIG. 3 starts at 28 days following injection).
The mark [6] stands for this setting: 2nd time point column (day head not given).
Setting [7] is: 3rd time point column (day head not given).
Where [8] appears, read: 4th time point column (day head not given).
Where [9] appears, read: 5th time point column (day head not given).
Setting [10] is: 6th time point column (day head not given).

Where “and” joins values, the source holds several entries; their conditions need not be identical. Equal entries are not always repeated.

From patent US9518130B2, “Use of ERBB3 inhibitors in the treatment of triple negative and basal-like breast cancers” (Merrimack Pharmaceuticals, Inc., priority 2010, dated 2016) come the findings set out here.

Consider `C#Cc1cccc(Nc2ncnc3cc(OCCOC)c(OCCOC)cc23)c1` [erlotinib], for which the mean tumor volumes was 172.1 mm^3 in experiment [1] (Day 28); 182.1 mm^3 in experiment [1] (Day 32); 216.1 mm^3 in experiment [1] (Day 36); 273.2 mm^3 in experiment [1] (Day 39); 252.8 mm^3 in experiment [1] (Day 43); 245.6 mm^3 in experiment [1] (Day 46). In addition, the values for the mean tumor volumes in experiment [1] (Day 49) and in experiment [1] (Day 53) were 303.1 mm^3 and 327.4 mm^3, respectively.

Take `CC(=O)O[C@H]1C(=O)[C@@]2(C)[C@H]([C@H](OC(=O)c3ccccc3)[C@]3(O)C[C@H](OC(=O)[C@H](O)[C@@H](NC(=O)c4ccccc4)c4ccccc4)C(C)=C1C3(C)C)[C@]1(OC(C)=O)CO[C@@H]1C[C@@H]2O` [paclitaxel]: the mean tumor volumes in experiment [2] (setting [5]) is given as 97.9 mm^3; in experiment [2] (setting [6]) it was 113.5 mm^3; in experiment [2] (setting [7]), 144.6 mm^3; in experiment [2] (setting [8]), 166.2 mm^3; in experiment [2] (setting [9]), 178.8 mm^3; in experiment [2] (setting [10]), 202.2 mm^3. Further, the mean tumor volumes is given as 155.2 mm^3 in experiment [1] (Day 28); 167.0 mm^3 in experiment [1] (Day 32); 182.4 mm^3 in experiment [1] (Day 36); 216.6 mm^3 in experiment [1] (Day 39); 228.1 mm^3 in experiment [1] (Day 43); 247.0 mm^3 in experiment [1] (Day 46). The results for the mean tumor volumes in experiment [1] (Day 49) and in experiment [1] (Day 53) were 292.6 mm^3 and 383.5 mm^3, respectively. Besides, the “effect on tumor growth (in words)” value in experiment [2] is on record as “inhibited tumor growth”.

B1: MM-121: anti-ErbB3 monoclonal antibody comprising VH and VL sequences as shown in SEQ ID NOs: 1 and 2 (antibody, listed as Homo sapiens, V domains shown)
VH: EVQLLESGGGLVQPGGSLRLSCAASGFTFSHYVMAWVRQAPGKGLEWVSSISSSGGWTLYADSVKGRFTISRDNSKNTLYLQMNSLRAEDTAVYYCTRGLKMATIFDYWGQGTLVTVSS
VL: QSALTQPASVSGSPGQSITISCTGTSSDVGSYNVVSWYQQHPGKAPKLIIYEVSQRPSGVSNRFSGSKSGNTASLTISGLQTEDEADYYCCSYAGSSIFVIFGGGTKVTVL
Turning to B1, the “effect on tumor growth (in words)” value in experiment [3] (FIG. 1) was “inhibited or stopped tumor growth, and in some cases reduced tumor size”; in experiment [4], “stopped human triple negative breast cancer tumor growth essentially completely”; in experiment [2], “inhibited tumor growth”. Further, in experiment [3] (MAXF449 xenograft, NMRI nude mice), the “TGI (tumor growth inhibition)” value was “approximately 200% and 200%”. Besides, the mean tumor volumes in experiment [2] (setting [5]) was found to be 99.4 mm^3; in experiment [2] (setting [6]), 115.5 mm^3; in experiment [2] (setting [7]) it was 137.5 mm^3; in experiment [2] (setting [8]), 180.4 mm^3; in experiment [2] (setting [9]) it was 187.2 mm^3; in experiment [2] (setting [10]) it was 242.7 mm^3. Besides, the mean tumor volumes in experiment [1] (Day 28) was 178.6 mm^3; in experiment [1] (Day 32), 197.3 mm^3; in experiment [1] (Day 36), 219.1 mm^3; in experiment [1] (Day 39) it was 257.8 mm^3; in experiment [1] (Day 43) it was 269.4 mm^3; in experiment [1] (Day 46), 291.4 mm^3. The mean tumor volumes in experiment [1] (Day 49) was 351.3 mm^3; in experiment [1] (Day 53), 425.0 mm^3.
